# Measurements published in patent US20250339542A1, “CONVERSION OF A BIOLOGICALLY SILENT MIRNA BINDING SMALL MOLECULE TO AN MIRNA DEGRADER” (University of Florida Research Foundation, Incorporated, priority 2020, published 2025).
# Values joined by “and” are separate entries in the source; they are usually repeats but may differ in a detail not shown here. Identical values can stand only once.
# Key:
# pri-miR-155 = assay: RT-qPCR of pri-miR-155 levels in MDA-MB-231 cells; assay type: cell-based, human
# Method: (§1) Tissue Culture. MDA-MB-231 cells were obtained from ATCC (HTB-26) and cultured in RPMI medium with […] & 25 mM HEPES (Corning) supplemented with 10% FBS (sigma). MCF-10a cells were obtained from ATCC(CRL-10317) and cultured in DMEM/F12 50/50 with glutamine and 15 mM HEPES(Corning) containing 20% FBS(Sigma), 1×Antibiotic-Antimycotic(Corning), 20 ng/mL of human epidermal growth factor(Pepro Tech Inc.), 100 μg/mL of insulin and […] of hydrocortisone (Pfizer &Bauer). HUVECs were cultured in EGM (Lonza) made using the EGM-2 bullet kit (Lonza) per the manufacturers protocol.
# RT-qPCR analysis for Mature, Primary and Precursor miRNAs and mRNA levels. After compound treatment for the indicated time (MDA-MB-231 48 h and HUVECs 24 h), total RNA was extracted using the Zymo Quick-RNA mini prep kit according to the manufacturers protocol. […] The obtained data was analyzed by using the ΔΔCt method as described previously. […] Then the media was changed with fresh growth medium without compound and the cells incubated for 12, 24 and 36 h with RNA harvested and pre-miR-155 levels analyzed as described above.
# (§2) RT-qPCR analysis for Mature, Primary and Precursor miRNAs and mRNA levels part. Relative RNA expression was determined by using ΔΔCt method with 18S rRNA as an internal control. Normalized fold change was calculated with the equation as below: […]
# Von-Hippel Lindau (VHL) = assay: Western blot of VHL in HUVECs; assay type: cell-based, human
# SOCS1 = assay: Western blot of SOCS1 in MDA-MB-231 cells; assay type: cell-based, human
# Method: Western-Blotting. MDA-MB-231 cells were plated in 6 well plates at 150,000 cells/well. And at 50% confluency, cells were treated with Vehicle or 155-ribotac for 48 h. Then the medium was removed and washed with 1× DPBS. The cells were trypsinized and pelleted. The pellets were washed twice with 1× DPBS and then lysed in 50 L of M-PER (Thermo Fisher) buffer with 1× protease inhibitor cocktail (Roche) on ice for 20 min. The lysate was centrifuged at 4° C. for 15 min and the supernatants were collected. Protein concentration were determined using a Pierce Mico BCA Protein Assay kit (Fisher Scientific) according to the manufacturer's protocol. Approximately 20 g of total protein for each sample was resolved on a 10% SDS-polyacrylamide gel and the protein were then transferred to a PVDF membrane. […] After washing with 1× TBST for 15 min for 3 times, SOCS1 protein expression was detected by using SuperSignal West Pico Chemiluminescent Substrate (Pierce Biotechnology).
# The membrane was then stripped by Stripping Buffer (200 mM glycine with 0.1% SDS, pH 2.2) for 90 min at RT and then the membrane was washed with 1× TBST for 10 min for 3 times. […] The membrane was then washed with 1× TBST for 10 min for 3 times and j-actin expression level was detected. ImageJ software was used to quantify the protein bands.
# [1] = test system: RNA isoforms of miR-155 that contain the 5′GAU/3′C_A binding site; assay: RT-qPCR of RNA isoforms of miR-155 (same binding site) in MDA-MB-231 cells; assay type: cell-based, human; conditions: 48 h
# Method: Next, the selectivity of 3 to inhibit miR-155 out of 373 expressed miRNAs in MDA-MB-231 cell was assessed. […] A comparison of their structures to the aforementioned list of miRNAs with potential RIBOTAC sites identified that all except pre-miR-101-1 and pre-let-7g have a RIBOTAC targetable motif.
# (§3) RT-qPCR analysis for Mature, Primary and Precursor miRNAs and mRNA levels. After compound treatment for the indicated time (MDA-MB-231 48 h and HUVECs 24 h), total RNA was extracted using the Zymo Quick-RNA mini prep kit according to the manufacturers protocol. Reverse Transcription (RT) for microRNAs and pri- and pre-miR-155 were done on 200 ng of RNA using the miScript II RT kit (Qiagen) according to the manufacturer's protocol. The mRNAs were done using QScript (Quanta Bio) on 200 ng of total RNA according to the manufacturer's protocol. RT-qPCR was done as mentioned above. The obtained data was analyzed by using the ΔΔCt method as described previously. For the washout experiment, MDA-MB-231 cells were treated with 3 for 48 h. Then the media was changed with fresh growth medium without compound and the cells incubated for 12, 24 and 36 h with RNA harvested and pre-miR-155 levels analyzed as described above.
# miR-155 = assay: RT-qPCR of miR-155 levels in HUVECs; assay type: cell-based, human
# Method: as §1, §3
# MCF-10a cells = assay: Migration assay of transfected MCF-10a cells; assay type: cell-based; conditions: mock transfected MCF-10a cells
# Method: Lastly, the dependence of migration on miR-155 and the activity of 3 on the presence of the 5′GAU/3′C_A bulge was assessed. MCF-10a cells, a model of healthy breast epithelium, were transfected with wild type pre-miR-155 and mutant pre-miR-155, where the 5′GAU/3′C_A bulge is mutated to an AU base pair. […] Treatment with 3 reduced migration of MCF-10a cells transfected with WT pre-miR-155 by 60%, in contrast to mutant miR-155 expressing cells in which the compound's binding site has been ablated, the migration of which was unaffected by 3 treatment.
# Migration Assay: The Migration assay was performed the same as previous publication^15. Briefly, MDA-MB-231 cells were serum starved for 12 h in RPMI medium without FBS. Then, samples of 50,000 cells treated with vehicle or 155-Ribotac in serum starved medium were seeded into Hanging cell culture Inserts with 8.0 µm pores for 24 well plate with complete growth medium in the bottom well. After 20 h, the medium was aspirated and the inserts and the bottom wells were washed with DPBS twice. Then to the bottom well were added 400 µL of 4% paraformaldehyde. After fixing for 20 min. The inserts and wells were washed with DPBS twice and then treated with 400 µL of 0.1% crystal violet solution. After 20 min, the wells and inserts were washed with water twice and PBS once. Cotton swabs were used to remove the cells inside the inserts. […]
# pre-miR-155 [2] = assay: RT-qPCR of pre-miR-155 levels in MDA-MB-231 cells; assay type: cell-based, human
# Method: as §1, §3, §2
# pre-miR-155 [3] = assay: RT-qPCR of pre-miR-155 levels in HUVECs; assay type: cell-based, human
# Method: as §1, §3
# MDA-MB-231 cells = assay: Migration assay of MDA-MB-231 cells; assay type: cell-based; conditions: Homo sapiens, compound 3 at 1×10^−7 M, read-out: inhibition of cellular migration
# Method: Migration Assay: The Migration assay was performed the same as previous publication^15. Briefly, MDA-MB-231 cells were serum starved for 12 h in RPMI medium without FBS. Then, samples of 50,000 cells treated with vehicle or 155-Ribotac in serum starved medium were seeded into Hanging cell culture Inserts with 8.0 µm pores for 24 well plate with complete growth medium in the bottom well. After 20 h, the medium was aspirated and the inserts and the bottom wells were washed with DPBS twice. Then to the bottom well were added 400 µL of 4% paraformaldehyde. After fixing for 20 min. The inserts and wells were washed with DPBS twice and then treated with 400 µL of 0.1% crystal violet solution. After 20 min, the wells and inserts were washed with water twice and PBS once. Cotton swabs were used to remove the cells inside the inserts. Migration inserts were completely air-dried and imaged by using a Leica DMI3000 B upright fluorescent microscope.
# HUVECs = assay: Angiogenesis: tubule network formation of HUVECs on Matrigel; assay type: cell-based, human
# Method: Lastly, compound 3's (Formula I) effect on VHL protein and angiogenesis in HUVECs was studied. […] Since upregulation of VHL should attenuate the angiogenic capacity of HUVECs, their ability to differentiate into tubule networks on Matrigel as previously described was measured.^24 Treatment with compound 3, caused a decrease of 29% (100 vs. 140 branch points) in tubule branching for differentiated HUVECs. Although small, this decrease does correspond with suppression of miR-155 and de-repression of VHL, which is in line with the initial study by Kong et al. who observed a 42% reduction in branching points (FIG. 21I).^38 Taken together compound 3 degrades miR-155 in HUVECs with low nanomolar activity and is able to attenuate their angiogenic capacity.
smiles,measurement,setting,value
CCOC(=O)C1=C(Nc2ccccc2)S/C(=C\c2ccc(OCCOCCOCCOCCNC(=O)CCc3c(C)n(-c4c(C(C)C)cccc4C(C)C)c[n+]3-c3c(C(C)C)cccc3C(C)C)c(O)c2)C1=O [Compound 3],degradation of the primary transcript (pri-miR-155),pri-miR-155,43%
same,de-repression of VHL,Von-Hippel Lindau (VHL); 10 nM,50%
same,de-repression of VHL,Von-Hippel Lindau (VHL); 1×10^−7 M,1.5 fold
same,de-repression of SOCS1,SOCS1,50%
same,upregulation of SOCS1,SOCS1,1.6 fold
same,effect on RNA isoforms of miR-155,[1],no effect
same,lowest concentration showing reduction of miR-155 levels,miR-155,≤ 1 nM
same,inhibition at 0.001 µM,"miR-155; Homo sapiens, HUVEC, 1×10^−9 M",50%
same,effect on migration,MCF-10a cells,inactive
same,degradation of pre-miR-155,"pre-miR-155 [2]; MDA-MB-231 cells, 1×10^−7 M, 48 h",60%
same,degradation of pre-miR-155,"pre-miR-155 [2]; MDA-MD-231 and/or HUVEC cells, 0.1 micromolar, summary",≥ 60%
same,lowest concentration showing cleavage of pre-miR-155,pre-miR-155 [3],≤ 1 nM
same,inhibition at 0.001 µM,"pre-miR-155 [3]; Homo sapiens, HUVEC, 1×10^−9 M",50%
same,inhibition at 0.1 µM,MDA-MB-231 cells,50%
same,inhibition of angiogenic capacity / decrease in tubule branching,HUVECs; differentiated HUVECs on Matrigel,20% and 29%
same,branch points,"HUVECs; differentiated HUVECs, treated (vs. 140 untreated)",100
